{"source": "patent US20260256811A1", "about": "“Humoral Immune Activators for the Treatment of Humoral Immunosuppressed Pathologies, Cancer and Infectious Disease and Humoral Immune Suppressors for the Treatment of Inflammatory Diseases” (Navrogen, Inc., priority 2022, published 2026)", "key": {"[1]": {"system": "SKBR3, OE19 or OV-CD20 target cells", "assay": "ADCC by human PBMC and NK effector cells against tumor target cells", "assay_type": "cell-based", "conditions": "25 or 50 μM plus 2.5 μg/mL trastuzumab or rituximab, 24 hours; vs antibody alone (vehicle)", "method": "(§1) Briefly, 5,000 human breast carcinoma (SKBR3 or OE19) or OV-CD20 target cells were plated in black 96-well microplates in R7.5 media for 48 hours. Wells were washed and 50,000 PBMC, NK or SPL effector cells were added in R1 assay media with or without a targeting test antibody and 25 or 50 μM of Compound 2. Vehicle is the solvent that Compound 2 is dissolved in. For assays employing SKBR3 human breast cancer or OE19 esophageal adenocarcinoma cell lines, 2.5 μg/mL of the HER2-targeting trastuzumab test antibody was used for ADCC assays. For OV-CD20 assays, 2.5 μg/mL of the CD20-targeting rituximab test antibody was used for ADCC assays. Cultures were incubated for 24 hours at 37° C. in 5% CO2 in triplicate. After incubation, culture supernatants were harvested for cytokine analysis and wells were washed with phosphate buffered saline and adhered target cell viability was quantified via Cell Titer-GLO (Promega) using a Varioskan plate reader. […] ADCC data was graphed as percent killing of antibody treated with Compound 2 or vehicle vs. cultures not treated with antibody. […] AICC results were graphed as percent killing by Compound 2 vs vehicle only treated cultures. […] Experiments represent a minimum of triplicate wells."}, "CD16a FcR [2]": {"system": "CD16a FcR", "assay": "Cytokine ELISA on culture media of JKT-CD16a and parental Jurkat cells", "assay_type": "cell-based, human", "conditions": "10 μM, 18 hours, ELISA of supernatant"}, "CD16a-158F FcR": {"target": "T1, CD16a-158F FcR (Homo sapiens, UniProt P08637)", "T1 construct": "host or cells: Jurkat (JKT-CD16a luciferase reporter line)", "T1 sequence (P08637 17-254)": "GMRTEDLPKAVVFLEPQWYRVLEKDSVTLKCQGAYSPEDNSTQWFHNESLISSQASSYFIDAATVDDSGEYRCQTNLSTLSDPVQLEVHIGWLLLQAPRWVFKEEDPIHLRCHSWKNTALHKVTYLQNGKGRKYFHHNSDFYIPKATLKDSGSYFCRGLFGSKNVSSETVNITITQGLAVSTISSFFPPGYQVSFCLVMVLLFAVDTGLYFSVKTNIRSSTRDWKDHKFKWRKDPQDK", "T1 sequence (P20963 22-164 partner)": "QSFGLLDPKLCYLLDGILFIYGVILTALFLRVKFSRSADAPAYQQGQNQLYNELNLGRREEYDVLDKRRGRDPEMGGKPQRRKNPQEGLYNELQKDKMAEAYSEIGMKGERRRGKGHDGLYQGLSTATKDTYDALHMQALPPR", "assay": "Jurkat-CD16a-158F-luciferase (JKT-CD16a) reporter bioassay", "assay_type": "cell-based"}, "[3]": {"assay": "Metabolic stability in mouse liver microsomes", "assay_type": "in vitro ADME", "conditions": "mouse, microsomes", "method": "(§2) We next tested Compounds 2, 26, 27 and 33 for metabolic stability using human and mouse microsomes. For each test compound, samples were diluted a final concentration of 2 μg/mL in 25 mM potassium phosphate buffer with liver microsomes of each species at a final concentration of 0.5 mg/mL. The enzyme reaction was initiated by the addition of NADPH reagent at a final concentration of 1 mM. For negative control samples, NADPH reagent was not added. Samples were incubated at 37° C. on a 50-RPM orbital shaker, and an aliquot was removed at pre-determined timepoints at 0, 5, 10, 15, 30, and 60 minutes. Samples were then precipitated with three volume of acetonitrile containing propranolol as an internal standard, and centrifuged for 10 min at 2000 g then analyzed by LC/MS/MS. Note that compounds undergo only Phase I metabolism in liver microsomes in the presence of NADPH cofactors. Data interpretation of results are based on percent parent compound remaining relative to 0-minute incubation samples, from which the elimination half-life is calculated based on the natural log of % compound remaining vs. time plot. The following parameters were calculated to estimate the compound's in vitro metabolic stability: Cmp=concentration of microsomal proteins (mg/mL); t1/2=the half-life (min), where t1/2 is equal to 0.693/slope; CLint=the intrinsic hepatic clearance (μL/min/mg), where CLint is equal to 0.693/(t1/2×Cmp)."}, "[4]": {"assay": "Metabolic stability in human liver microsomes", "assay_type": "in vitro ADME", "conditions": "human, microsomes", "method": "as §2"}, "tumor target cells": {"system": "tumor target cells", "assay": "ADCC and cytokine production by mouse splenocyte (SPL) effector cells", "assay_type": "cell-based", "conditions": "25 or 50 μM plus targeting antibody, 24 hours; vs antibody alone (vehicle)", "method": "as §1"}, "OV-CD20 tumor cells": {"system": "OV-CD20 tumor cells", "assay": "AICC by human primary NK cells", "assay_type": "cell-based", "conditions": "absence of antibody, vs vehicle", "method": "as §1"}, "CD16a FcR [5]": {"system": "CD16a FcR", "assay": "Cytokine and granzyme ELISA on supernatants of primary human effector cells", "assay_type": "cell-based", "method": "as §1"}, "SARS-COV-2 virus": {"system": "SARS-COV-2 virus", "assay": "Viability of human PBMCs exposed to SARS-COV-2 virus", "assay_type": "cell-based", "conditions": "Severe acute respiratory syndrome coronavirus 2, PBMC, 72 h, read-out: PBMC viability after SARS-COV-2 exposure", "excerpt": "NK cells have been previously reported to be capable of killing virally infected cells (Bjorkstrom N K, et al. Nat Reviews Immunol 22:112-123, 2022). In particular, previous studies have shown that the SARS-COV-2 virus can infect human PBMCs and this infection can be lethal to overall PBMC survival (Manunta MDI, et al. Scientific Reports 11:4904-4916, 2021). To test the ability of CD16a FcR activating small molecular weight agents described here to activate effector cells within PBMCs that in turn can kill virally infected PBMC sib cells and reduce viral load, Compound 2 was tested against human PBMCs exposed to SARS-COV-2 virus. Briefly, IL2-activated PBMCs grown in RPMI media with 10% heat inactivated FBS (R10) were plated at 100,000 cells/well in 96 well U-bottom microplates. Next, […] viral titers (previously determined by plaque forming units, PFU) were added to appropriate wells with or without 25 μM of Compound 2. Cultures were incubated for 72 hours at 37° C. in 5% CO2. Plates were centrifuged and supernatants collected for future cytokine and viral titer analysis. Cells were resuspended in RPMI plus 10% FBS, transferred to 96-well black microplates and tested for viability using Cell Titer-Glo (Promega) and read for viability on a 96-well microplate reader. […] Experiments represent a minimum of triplicate wells."}, "[6]": {"assay": "Tolerability and serum TNFα in athymic nude mice, i.v. dosing", "assay_type": "in vivo", "method": "To determine the ability of Compound 2 to activate immune-effector cells in vivo, we administered 7 mg/kg of Compound 2 or similar volumes of vehicle (ethanol) daily for 5 days (day 1-5) and isolated total serum on day 11 to measure for immune-effector cell activation markers. […] Experiments represent a minimum of triplicate wells."}}, "data": [{"smiles": "CC(C)=CCC[C@@H](C)[C@H]1CC[C@@]2(C)C3CC[C@H]4C(C)(C)[C@@H](O)CC[C@@]45C[C@@]35CC[C@]12C", "note": "(some centres unmarked) [Compound 2]", "values": [{"measurement": "human (PBMC and NK cells) effector cell killing of target cells through ADCC", "setting": "[1]", "value": "enhance"}, {"measurement": "IFNγ and TNFα production by JKT-CD16a-158F cells", "setting": "CD16a FcR [2]", "value": "both cytokines were produced"}, {"measurement": "IFNγ and TNFα production by parental Jurkat cells (CD16a-null)", "setting": "CD16a FcR [2]", "value": "little to no cytokine production"}, {"measurement": "JKT-CD16a activation (luciferase RLU) in the presence of IgG", "setting": "CD16a-158F FcR; OV-CD20 target cells plus 2.5 μg/mL rituximab, 12-18 hours, vs vehicle or no compound", "value": "significant enhancement"}, {"measurement": "JKT-CD16a-158F FcR activation (luciferase RLU) in the absence of IgG antibody", "setting": "CD16a-158F FcR; OV-CD20 target cells without antibody, lower levels than with IgG", "value": "stimulated"}, {"measurement": "half-life at 2 μg/mL", "setting": "[3]", "value": 1.88, "unit": "h"}, {"measurement": "microsomal CLint at 2 μg/mL", "setting": "[3]", "value": 12.3, "unit": "µL/min/mg"}, {"measurement": "half-life at 2 μg/mL", "setting": "[4]", "value": 1.18, "unit": "h"}, {"measurement": "microsomal CLint at 2 μg/mL", "setting": "[4]", "value": 19.7, "unit": "µL/min/mg"}, {"measurement": "mouse (SPL cells) effector cell killing of target cells through ADCC", "setting": "tumor target cells", "value": "enhance"}, {"measurement": "NK cell killing of OV-CD20 tumor cells via AICC", "setting": "OV-CD20 tumor cells", "value": "enabled NK cell killing of OV-CD20 tumor cells"}, {"measurement": "TNFα, IFNγ, GM-CSF and granzyme B production by NK cells", "setting": "CD16a FcR [5]; absence of antibody, ELISA of supernatants", "value": "produced and secreted"}, {"measurement": "time of exposure to activation and cytokine production", "setting": "CD16a FcR [5]; time course analysis", "value": "≤ 30", "unit": "min"}, {"measurement": "viability at 25 µM", "setting": "SARS-COV-2 virus", "value": 100, "unit": "%"}, {"measurement": "serum TNFα", "setting": "[6]; 7 mg/kg i.v. daily day 1-5, serum on day 11, ELISA, vehicle cohort 11 μg/mL", "value": 298, "unit": "µg/mL"}, {"measurement": "tolerability by lack of body weight loss", "setting": "[6]; 7 mg/kg i.v. daily for 5 days, athymic nude mice", "value": "well tolerated"}, {"measurement": "tolerable dose, daily i.v. dosing", "setting": "[6]; athymic nude mice", "value": "at least 7 mg/kg"}]}]}
